# Experimental data from patent publication EP0598515A1, “Method for herbicidal activity-enhancing, activity-enhanced herbicidal composition and activity-enhancing composition” (ISHIHARA SANGYO KAISHA LTD., priority 1992, dated 1994).
# Where “and” joins values, the source holds several entries; their conditions need not be identical. Equal entries are not always repeated. Where two headings read alike, the source gives them in different places.
# Tests used:
# Type in all cases: in vivo
# [1] = system: Common lambsquarters (Chenopodium album L.); assay: Test Example 8: pot test, Example 8 suspension concentrate with Frigate; conditions: 408 h, 17 days after treatment, duplicate, read-out: Growth Inhibition (%) of Common Lambsquarters; for inhibition at 5 g/ha: Compound A 5 g/ha; for inhibition at 10 g/ha: Compound A 10 g/ha; for inhibition at 20 g/ha: Compound A 20 g/ha; for inhibition at 40 g/ha: Compound A 40 g/ha
# Method: Common lambsquarters (Chenopodium album L.) seeds were sown in 1/1,000,000-hectare pots filled with upland soil and arranged in a duplicate system. When the common lambsquarters plants grew to a 8- to 9-leaf stage, the oil-based suspension concentrate obtained in Example 8 was diluted with 500 liters/hectare of water containing a predetermined amount of Frigate and was applied foliarly to the plants with a small spray gun.
# Seventeen days after treatment, the growth inhibition of plants was evaluated with visual observation in the same manner as in Test Example 1 and are shown in Table 8.
# [2] = system: Common lambsquarters (Chenopodium album L.); assay: Test Example 13: field plot test, growth inhibition; conditions: 648 h, Example 8 suspension concentrate, 27 days after treatment, field plots, read-out: Growth Inhibition (%) CA; for inhibition at 30 g/ha: Compound A 30 g/ha; for inhibition at 40 g/ha: Compound A 40 g/ha
# Source text: (§1) In field plots of 4 m² (1 m × 4 m) unit arranged in a duplicate system, seeds of corn, crabgrass (Digitaria sanguinalis L.) common lambsquarters (Chenopodium album L.), slender amaranth (Amaranthus viridis L.), velvetleaf (Abutilon theophrasti MEDIC.) and common cocklebur (Xanthium strumarium L.) were sown and grown. Also, green foxtail (Setaria viridis L.) and barnyardgrass (Echinochloa crus-galli L.) were allowed to grow spontaneously. When the plants grew to certain stages (corn: 4.2 to 6.0-leaf stage, crabgrass: 3.2 to 5.0-leaf stage, common lambsquarters: 3.0 to 6.0-leaf stage, slender amaranth: 2.0 to 5.0-leaf stage, velvetleaf: 1.5 to 4.0-leaf stage, common cocklebur: cotyledonal to 3.5-leaf stage, green foxtail: 3.0 to 5.0-leaf stage and barnyardgrass: 3.0 to 5.0-leaf stage), the oil-based suspension concentrate obtained in Example 8 was diluted with 200 liters/hectare of water containing a predetermined amount of Frigate and was applied foliarly to the plants with a small spray gun.
# (§2) Twenty seven days after treatment, the growth inhibition of plants except for corn plants was evaluated with visual observation in the same manner as in Test Example 1 and are shown in Table 13.
# [3] = system: Crabgrass (Digitaria sanguinalis L.); assay: as above; conditions: 648 h, Example 8 suspension concentrate, 27 days after treatment, field plots, read-out: Growth Inhibition (%) DS; for inhibition at 30 g/ha: Compound A 30 g/ha; for inhibition at 40 g/ha: Compound A 40 g/ha
# Source text: as §1, §2
# [4] = system: Velvetleaf (Abutilon theophrasti MEDIC.); assay: as above; conditions: 648 h, Example 8 suspension concentrate, 27 days after treatment, field plots; for inhibition at 30 g/ha: Compound A 30 g/ha; for inhibition at 40 g/ha: Compound A 40 g/ha
# Source text: as §1, §2
# [5] = system: barnyardgrass (Echinochloa crus-galli L.); assay: as above; conditions: Example 8 suspension concentrate, 27 days after treatment, field plots; for inhibition at 30 g/ha: Compound A 30 g/ha
# Source text: as §1, §2
# [6] = system: common cocklebur (Xanthium strumarium L.); assay: as above; conditions: Example 8 suspension concentrate, 27 days after treatment, field plots
# Source text: as §1, §2
# [7] = system: green foxtail (Setaria viridis L.); assay: as above; conditions: Example 8 suspension concentrate, 27 days after treatment, field plots; for inhibition at 40 g/ha: Compound A 40 g/ha
# Source text: as §1, §2
# [8] = system: slender amaranth (Amaranthus viridis L.); assay: as above; conditions: 648 h, Example 8 suspension concentrate, 27 days after treatment, field plots, read-out: Growth Inhibition (%) AV; for inhibition at 30 g/ha: Compound A 30 g/ha; for inhibition at 40 g/ha: Compound A 40 g/ha
# Source text: as §1, §2
# [9] = Frigate: No addition, Compound A 50 g/ha
# [10] = Frigate 0.2 % by volume, Compound A 20 g/ha
smiles,measurement,setting,value
"COc1cc(OC)nc(NC(=O)NS(=O)(=O)c2ncccc2C(=O)N(C)C)n1 [Compound A, N-[(4,6-dimethoxypyrimidin-2-yl)aminocarbonyl]-3-dimethylaminocarbonyl-2-pyridinesulfonamide]",inhibition at 5 g/ha,[1]; Frigate 0.25 % by volume,50%
same,inhibition at 10 g/ha,[1]; Frigate 0.25 % by volume,60%
same,inhibition at 20 g/ha,[1]; Frigate 0.25 % by volume,80%
same,inhibition at 40 g/ha,[1]; Frigate 0.25 % by volume,90%
same,inhibition at 5 g/ha,[1]; Frigate 0.5 % by volume,55%
same,inhibition at 10 g/ha,[1]; Frigate 0.5 % by volume,70%
same,inhibition at 20 g/ha,[1]; Frigate 0.5 % by volume,85%
same,inhibition at 40 g/ha,[1]; Frigate 0.5 % by volume,90%
same,inhibition at 5 g/ha,[1]; Frigate: No addition,0%
same,inhibition at 10 g/ha,[1]; Frigate: No addition,0%
same,inhibition at 20 g/ha,[1]; Frigate: No addition,50%
same,inhibition at 40 g/ha,[1]; Frigate: No addition,80%
same,inhibition at 30 g/ha,[2]; Frigate 0.1 % by volume,80%
same,inhibition at 40 g/ha,[2]; Frigate 0.1 % by volume,90%
same,inhibition at 30 g/ha,[2]; Frigate 0.2 % by volume,85%
same,inhibition at 40 g/ha,[2]; Frigate 0.2 % by volume,90%
same,inhibition at 30 g/ha,[2]; Frigate: No addition,45%
same,inhibition at 40 g/ha,[2]; Frigate: No addition,65%
same,inhibition at 50 g/ha,[2]; [9],65%
same,inhibition at 30 g/ha,[3]; Frigate 0.1 % by volume,85%
same,inhibition at 40 g/ha,[3]; Frigate 0.1 % by volume,95%
same,inhibition at 20 g/ha,[3]; [10],85%
same,inhibition at 30 g/ha,[3]; Frigate 0.2 % by volume,85%
same,inhibition at 40 g/ha,[3]; Frigate 0.2 % by volume,90%
same,inhibition at 30 g/ha,[3]; Frigate: No addition,75%
same,inhibition at 40 g/ha,[3]; Frigate: No addition,80%
same,inhibition at 50 g/ha,[3]; [9],85%
same,inhibition at 30 g/ha,[4]; Frigate 0.1 % by volume,70%
same,inhibition at 40 g/ha,[4]; Frigate 0.1 % by volume,70%
same,inhibition at 20 g/ha,[4]; [10],55%
same,inhibition at 30 g/ha,[4]; Frigate 0.2 % by volume,70%
same,inhibition at 40 g/ha,[4]; Frigate 0.2 % by volume,75%
same,inhibition at 30 g/ha,[4]; Frigate: No addition,30%
same,inhibition at 40 g/ha,[4]; Frigate: No addition,55%
same,inhibition at 50 g/ha,[4]; [9],70%
same,inhibition at 40 g/ha,"[5]; Echinochloa crus-galli, 648 h, Frigate 0.1 % by volume, Compound A 40 g/ha, read-out: Growth Inhibition (%) EC",100%
same,inhibition at 20 g/ha,"[5]; Echinochloa crus-galli, 648 h, Frigate 0.2 % by volume, Compound A 20 g/ha, read-out: Growth Inhibition (%) EC",100%
same,inhibition at 30 g/ha,"[5]; Echinochloa crus-galli, 648 h, Frigate 0.2 % by volume, read-out: Growth Inhibition (%) EC",100%
same,inhibition at 40 g/ha,"[5]; Echinochloa crus-galli, 648 h, Frigate 0.2 % by volume, Compound A 40 g/ha, read-out: Growth Inhibition (%) EC",100%
same,inhibition at 30 g/ha,"[5]; Echinochloa crus-galli, 648 h, Frigate: No addition, read-out: Growth Inhibition (%) EC",65%
same,inhibition at 40 g/ha,"[5]; Echinochloa crus-galli, 648 h, Frigate: No addition, Compound A 40 g/ha, read-out: Growth Inhibition (%) EC",75%
same,Growth Inhibition (%) EC,"[5]; Frigate: No addition, Compound A 40 g/ha",60%
same,Growth Inhibition (%) XS,"[6]; Frigate 0.2 % by volume, Compound A 40 g/ha",65%
same,Growth Inhibition (%) XS,"[6]; Frigate: No addition, Compound A 30 g/ha",25% and 50%
same,inhibition at 30 g/ha,"[6]; Xanthium strumarium, 648 h, Frigate 0.1 % by volume, Compound A 30 g/ha, read-out: Growth Inhibition (%) XS",80%
same,inhibition at 40 g/ha,"[6]; Xanthium strumarium, 648 h, Frigate 0.1 % by volume, Compound A 40 g/ha, read-out: Growth Inhibition (%) XS",80%
same,inhibition at 20 g/ha,"[6]; Xanthium strumarium, 648 h, Frigate 0.2 % by volume, Compound A 20 g/ha, read-out: Growth Inhibition (%) XS",80%
same,inhibition at 30 g/ha,"[6]; Xanthium strumarium, 648 h, Frigate 0.2 % by volume, Compound A 30 g/ha, read-out: Growth Inhibition (%) XS",85%
same,inhibition at 40 g/ha,"[6]; Xanthium strumarium, 648 h, Frigate: No addition, Compound A 40 g/ha, read-out: Growth Inhibition (%) XS",75%
same,inhibition at 50 g/ha,"[6]; Xanthium strumarium, 648 h, Frigate: No addition, Compound A 50 g/ha, read-out: Growth Inhibition (%) XS",70%
same,Growth Inhibition (%) SV,"[7]; Frigate 0.1 % by volume, Compound A 30 g/ha",40%
same,inhibition at 40 g/ha,"[7]; Setaria viridis, 648 h, Frigate 0.1 % by volume, read-out: Growth Inhibition (%) SV",70%
same,inhibition at 20 g/ha,"[7]; Setaria viridis, 648 h, Frigate 0.2 % by volume, Compound A 20 g/ha, read-out: Growth Inhibition (%) SV",60%
same,inhibition at 30 g/ha,"[7]; Setaria viridis, 648 h, Frigate 0.2 % by volume, Compound A 30 g/ha, read-out: Growth Inhibition (%) SV",65%
same,inhibition at 40 g/ha,"[7]; Setaria viridis, 648 h, Frigate 0.2 % by volume, read-out: Growth Inhibition (%) SV",75%
same,inhibition at 30 g/ha,"[7]; Setaria viridis, 648 h, Frigate: No addition, Compound A 30 g/ha, read-out: Growth Inhibition (%) SV",65%
same,inhibition at 40 g/ha,"[7]; Setaria viridis, 648 h, Frigate: No addition, read-out: Growth Inhibition (%) SV",70%
same,inhibition at 50 g/ha,"[7]; Setaria viridis, 648 h, Frigate: No addition, Compound A 50 g/ha, read-out: Growth Inhibition (%) SV",80%
same,inhibition at 30 g/ha,[8]; Frigate 0.1 % by volume,95%
same,inhibition at 40 g/ha,[8]; Frigate 0.1 % by volume,90%
same,inhibition at 20 g/ha,[8]; [10],85%
same,inhibition at 30 g/ha,[8]; Frigate 0.2 % by volume,90%
same,inhibition at 40 g/ha,[8]; Frigate 0.2 % by volume,95%
same,inhibition at 30 g/ha,[8]; Frigate: No addition,90%
same,inhibition at 40 g/ha,[8]; Frigate: No addition,95%
same,inhibition at 50 g/ha,[8]; [9],95%
